From patent US12091425B2 (AMGEN INC., priority 2016, dated 2024)

How the values were obtained:
[1] = target: T1, Mcl-1/Bim interaction, recombinant human Mcl-1 (171-327) (Homo sapiens, UniProt Q07820); test: Cell free Mcl-1: Bim Affinity Assay (Mcl-1 HTRF); assay type: binding; settings: TR-FRET, 0.1 nM Mcl-1 (171-327), 0.05 nM biotin-Bim (51-76)
T1 construct: made in house
In short: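 Biotin-Bim(51-76) peptide, TR-FRET readout, overnight incubation; IC50 from duplicate competition curves, 4-parameter fit.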

[2] = tested on: OPM-2 human multiple myeloma cell line; test: Cell Viability Assay (OPM-2 10 FBS); assay type: cell-based; settings: OPM-2 cells, CellTiter-Glo
In short: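 OPM-2 myeloma cells, 3000/well in medium with 10% FBS, exposed to serially diluted compounds for 16 h at 37° C./5% CO2. Viability read by CellTiter-Glo luminescence; IC50 from 4-parameter logistic fit.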

[3] = Homo sapiens, OPM-2, 16 h, 16 h incubation
[4] = Homo sapiens, OPM-2, 16 h, 16 h

T1 sequence (Q07820 171-327): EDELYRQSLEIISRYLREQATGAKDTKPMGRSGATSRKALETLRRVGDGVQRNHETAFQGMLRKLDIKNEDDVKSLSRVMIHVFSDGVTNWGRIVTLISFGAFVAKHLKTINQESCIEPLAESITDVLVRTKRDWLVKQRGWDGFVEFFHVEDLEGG

Row | IC50 [1] | IC50 [2, 3] | IC50 [2, 4] | Compound | IC50 ([2]; 16 h incubation)
1 | 1.36 nM | 11300 nM | – | O=C1NS(=O)(=O)C2COCC2CC=CC(O)C2CCC2CN2CC3(CCCc4cc(Cl)ccc43)COc3ccc1cc32 (single isomer, unassigned) [Example 1036] | –
2 | 0.183 nM | 77.2 nM | – | C[C@@H]1[C@@H](C)S(=O)(=O)NC(=O)c2ccc3c(c2)N(C[C@@H]2CC[C@H]2[C@@H](O)/C=C/[C@@H]1C)C[C@@]1(CCCc2cc(Cl)ccc21)CO3 (single isomer, unassigned) [Example 1041] | –
3 | 0.78 nM | 393 nM | – | C[C@H]1[C@H](C)/C=C/[C@H](O)[C@@H]2CC[C@H]2CN2C[C@@]3(CCCc4cc(Cl)ccc43)COc3ccc(cc32)C(=O)NS(=O)(=O)[C@@H]1C (single isomer, unassigned) [Example 1042] | –
4 | 6.09 nM | 6740 nM | – | C[C@@H]1[C@@H](C)/C=C/[C@H](O)[C@@H]2CC[C@H]2CN2C[C@@]3(CCCc4cc(Cl)ccc43)COc3ccc(cc32)C(=O)NS(=O)(=O)[C@H]1C (single isomer, unassigned) [Example 1043] | –
5 | 0.211 nM | – | – | CCC1C(C)C(C)C=CC(O)C2CCC2CN2CC3(CCCc4cc(Cl)ccc43)COc3ccc(cc32)C(=O)NS1(=O)=O (single isomer, unassigned) [Example 1054] | 101 nM
6 | 0.394 nM | – | – | CCC1C(C)C(C)C=CC(O)C2CCC2CN2CC3(CCCc4cc(Cl)ccc43)COc3ccc(cc32)C(=O)NS1(=O)=O (single isomer, unassigned) [Example 1055] | 257 nM
7 | 9.7 nM | 4910 nM | – | C[C@@H]1CS(=O)(=O)NC(=O)c2ccc3c(c2)N(C[C@@H]2CC[C@H]2C(=O)/C=C/[C@@H]1C)C[C@@]1(CCCc2cc(Cl)ccc21)CO3 (single isomer, unassigned) [Example 1059] | –
8 | 0.711 nM | 1110 nM | – | CC1C=CC(O)C2CCC2CN2CC3(CCCc4cc(Cl)ccc43)COc3ccc(cc32)C(=O)NS(=O)(=O)CC1C (single isomer, unassigned) [Example 1061] | –
9 | 7.88 nM | – | – | C[C@@H]1/C=C/[C@@H](O)[C@@H]2CC[C@H]2CN2C[C@@]3(CCCc4cc(Cl)ccc43)COc3ccc(cc32)C(=O)NS(=O)(=O)C[C@@H]1C (single isomer, unassigned) [Example 1062] | 12600 nM
10 | 17.8 nM | 15200 nM | – | CO[C@@H]1/C=C/[C@@H](C)[C@@H](C)CS(=O)(=O)NC(=O)c2ccc3c(c2)N(C[C@@H]2CC[C@H]21)C[C@@]1(CCCc2cc(Cl)ccc21)CO3 (single isomer, unassigned) [Example 1066] | –
11 | 0.442 nM | – | – | C[C@@H]1[C@@H](C)S(=O)(=O)NC(=O)c2ccc3c(c2)N(C[C@@H]2CC[C@H]2[C@H](O)/C=C/[C@@H]1C)C[C@@]1(CCCc2cc(Cl)ccc21)CO3 (single isomer, unassigned) [Example 1068] | 1960 nM
12 | 9.49 nM | – | 14600 nM | C[C@@H]1[C@@H](C)C=C/C=C/[C@@H]2CC[C@H]2CN2C[C@@]3(CCCc4cc(Cl)ccc43)COc3ccc(cc32)C(=O)NS1(=O)=O (stereo in doubt) [Example 372, (1S,3′R,6′S,7′E,9′E,11′S,12′R)-6-chloro-11′,12′-dimethyl-3,4-dihydro-2H,15′H-spiro[naphthalene-1,22′-[20]oxa[13]thia[1,14]diazatetracyclo[14.7.2.0^3,6.0^19,24]pentacosa [7,9,16,18,24]pentaen]-15′-one 13′,13′-dioxide] | –
13 | 4.37 nM | 8980 nM | – | CC1C/C=C/[C@@H](O)[C@@H]2CC[C@H]2CN2C[C@@]3(CCCc4cc(Cl)ccc43)COc3ccc(cc32)C(=O)NS(=O)(=O)C1 (stereo in doubt) [Example 1088, (1S,3′R,6′R,7′R,8′E,11′S)-6-chloro-7′-hydroxy-11′-(methyl)-3,4-dihydro-2H,15′H-spiro [naphthalene-1,22′-[20]oxa[13]thia[1,14]diazatetracyclo[14.7.2.0^3,6.0^19,24]pentacosa [8,16,18,24]tetraen]-15′-one 13′,13′-dioxide] | –
14 | 0.34 nM | – | 254 nM | CO[C@H]1/C=C/C[C@H](CO)[C@@H](C)S(=O)(=O)NC(=O)c2ccc3c(c2)N(C[C@@H]2CC[C@H]21)C[C@@]1(CCCc2cc(Cl)ccc21)CO3 [Example 1, (1S,3′R,6′R,7′S,8′E,11′R,12′R)-6-chloro-11′-(hydroxymethyl)-7′-methoxy-12′-methyl-3,4-dihydro-2H,15′H-spiro[naphthalene-1,22′-[20]oxa[13]thia[1,14]diazatetracyclo[14.7.2.0^3,6.0^19,24]pentacosa [8,16,18,24]tetraen]-15′-one 13′,13′-dioxide] | –
15 | 0.54 nM | – | 329 nM | CO[C@H]1/C=C/C[C@H](CF)[C@@H](C)S(=O)(=O)NC(=O)c2ccc3c(c2)N(C[C@@H]2CC[C@H]21)C[C@@]1(CCCc2cc(Cl)ccc21)CO3 [Example 5, (1S,3′R,6′R,7′S,8′E,11′R,12′R)-6-chloro-11′-(fluoromethyl)-7′-methoxy-12′-methyl-3,4-dihydro-2H,15′H-spiro[naphthalene-1,22′-[20]oxa[13]thia[1,14]diazatetracyclo[14.7.2.0^3,6.0^19,24]pentacosa [8,16,18,24]tetraen]-15′-one 13′,13′-dioxide] | –
16 | 0.564 nM | – | 1460 nM | C[C@@H]1CC/C=C/[C@H](O)[C@@H]2CC[C@H]2CN2C[C@@]3(CCC(F)(F)c4cc(Cl)ccc43)COc3ccc(cc32)C(=O)NS1(=O)=O [Example 8, (1S,3′R,6′R,7′S,8′E,12′R)-6-chloro-4,4-difluoro-7′-hydroxy-12′-methyl-3,4-dihydro-2H,15′H-spiro[naphthalene-1,22′-[20]oxa[13]thia[1,14]diazatetracyclo[14.7.2.0^3,6.0^19,24]pentacosa [8,16,18,24]tetraen]-15′-one 13′,13′-dioxide] | –
17 | 0.63 nM | – | 155 nM | C[C@@H]1[C@@H](C)C/C=C/[C@H](OCCN2CC(F)(F)C2)[C@@H]2CC[C@H]2CN2C[C@@]3(CCCc4cc(Cl)ccc43)COc3ccc(cc32)C(=O)NS1(=O)=O [Example 9, (1S,3′R,6′R,7′S,8′E,11′S,12′R)-6-chloro-7′-(2-(3,3-difluoro-1-azetidinyl)ethoxy)-11′,12′-dimethyl-3,4-dihydro-2H,15′H-spiro[naphthalene-1,22′-[20]oxa[13]thia[1,14]diazatetracyclo[14.7.2.0^3,6.0^19,24]pentacosa[8,16,18,24]tetraen]-15′-one 13′,13′-dioxide] | –
18 | 2.97 nM | – | 630 nM | C[C@@H]1[C@@H](C)C/C=C/[C@H](OCCN2CCC(F)(F)CC2)[C@@H]2CC[C@H]2CN2C[C@@]3(CCCc4cc(Cl)ccc43)COc3ccc(cc32)C(=O)NS1(=O)=O [Example 10, (1S,3′R,6′R,7′S,8′E,11′S,12′R)-6-chloro-7′-(2-(4,4-difluoro-1-piperidinyl)ethoxy)-11′,12′-dimethyl-3,4-dihydro-2H,15′H-spiro[naphthalene-1,22′-[20]oxa[13]thia[1,14]diazatetracyclo[14.7.2.0^3,6.0^19,24]pentacosa[8,16,18,24]tetraen]-15′-one-13,13′-dioxide] | –
19 | 5.22 nM | – | 3650 nM | C[C@@H]1[C@@H](C)C/C=C/[C@H](OCCNc2ccccc2)[C@@H]2CC[C@H]2CN2C[C@@]3(CCCc4cc(Cl)ccc43)COc3ccc(cc32)C(=O)NS1(=O)=O [Example 11, (1S,3′R,6′R,7′S,8′E,11′S,12′R)-6-chloro-11′,12′-dimethyl-7′-(2-(phenylamino)ethoxy)-3,4-dihydro-2H,15′H-spiro[naphthalene-1,22′-[20]oxa[13]thia[1,14]diazatetracyclo[14.7.2.0^3,6.0^19,24]pentacosa[8,16,18,24]tetraen]-15′-one 13′,13′-dioxide] | –

Row | Compound | IC50 [1] | IC50 [2, 3] | IC50 [2, 4] | IC50 ([2]; 16 h incubation)
20 | COCCO[C@H]1/C=C/C[C@@H]2COC[C@H]2S(=O)(=O)NC(=O)c2ccc3c(c2)N(C[C@@H]2CC[C@H]21)C[C@@]1(CCCc2cc(Cl)ccc21)CO3 (single isomer, unassigned) [Example 1033] | 0.366 nM | – | – | 205 nM
21 | COCCO[C@H]1/C=C/C[C@H]2COC[C@@H]2S(=O)(=O)NC(=O)c2ccc3c(c2)N(C[C@@H]2CC[C@H]21)C[C@@]1(CCCc2cc(Cl)ccc21)CO3 (single isomer, unassigned) [Example 1034] | 4.04 nM | – | – | 8050 nM
22 | COC[C@@H]1C[C@@H](C)CC[C@H](O)[C@@H]2CC[C@H]2CN2C[C@@]3(CCCc4cc(Cl)ccc43)COc3ccc(cc32)C(=O)NS1(=O)=O (single isomer, unassigned) [Example 1037] | 0.831 nM | – | – | 744 nM
23 | COCCO[C@H]1/C=C/C(C)C[C@@H](COC)S(=O)(=O)NC(=O)c2ccc3c(c2)N(C[C@@H]2CC[C@H]21)C[C@@]1(CCCc2cc(Cl)ccc21)CO3 (single isomer, unassigned) [Example 1039] | 0.389 nM | – | – | 198 nM
24 | COCCO[C@H]1CC[C@@H](C)C[C@@H](COC)S(=O)(=O)NC(=O)c2ccc3c(c2)N(C[C@@H]2CC[C@H]21)C[C@@]1(CCCc2cc(Cl)ccc21)CO3 (single isomer, unassigned) [Example 1040] | 1.04 nM | – | – | 2190 nM
25 | C[C@H]1/C=C/[C@H](O)[C@@H]2CC[C@H]2CN2C[C@@]3(CCCc4cc(Cl)ccc43)COc3ccc(cc32)C(=O)NS(=O)(=O)[C@@H]2COC[C@H]21 (single isomer, unassigned) [Example 1058] | 0.249 nM | – | – | 456 nM
26 | COCCO[C@H]1/C=C/[C@H](C)[C@H](C)CS(=O)(=O)NC(=O)c2ccc3c(c2)N(C[C@@H]2CC[C@H]21)C[C@@]1(CCCc2cc(Cl)ccc21)CO3 (single isomer, unassigned) [Example 1065] | 0.402 nM | – | – | 94.9 nM
